According to patent publication US9403997B2, “Non-VOC neutralizing agents for coatings” (Hercules Incorporated, priority 2012, dated 2016):

Tests used:
[1] = Neutralizing agents tested in paint: viscosity, pH, gloss and yellowing compared to AMP-95 (Table 3); parameters: KU (eq) / ICI (eq): unit not given here; conditions: for pH (eq): pH of paint; for ICI (eq) / KU (eq): paint viscosity, 23PVC 50-VOC Vinyl Acrylic Semi-Gloss White, HASE thickener
Source text: The neutralizing agents shown in Table 2 were further tested in a paint formulation 23[…] Vinyl Acrylic Semi-Gloss White, using a HASE thickener. Gloss measurements, as well as yellowing were compared to AMP-95.

[2] = Formulations of Table 2 tested in paint for gloss and yellowness (Table 4)
Protocol: The formulations shown in Table 2 were tested in 23PVC50-VOC vinyl acrylic (UCAR379G) white and tested for gloss and yellowness.

pH (eq) [1]	ICI (eq) [1]	KU (eq) [1]	pH ([2]; pH of paint, 23PVC50-VOC vinyl acrylic (UCAR379G) white)	ICI (eq) ([2]; paint viscosity)	KU (eq) ([2]; paint viscosity)	Molecule
8.77	1.110	95.2	8.78	1.110	95.2	CC(C)(N)CO [AMP-95, 2-amino-2-methyl-1-propanol, reference compound]
9.7	1.023	94				NCC(=O)O [Glycine (neutralized w/NaOH), Glycine]
8.61	1.052	94.3				C[C@H](N)C(=O)O [L-Alanine (neutralized w/NaOH), L-Alanine]

Molecule	pH (eq) [1]	ICI (eq) [1]	KU (eq) [1]	pH ([2]; pH of paint, 23PVC50-VOC vinyl acrylic (UCAR379G) white)	ICI (eq) ([2]; paint viscosity)	KU (eq) ([2]; paint viscosity)
DL-Aspartic Acid Potassium Salt Hemihydrate	8.54	1.046	90.8			
